Legend:
[1] = target: T1, human Cystic Fibrosis Transmembrane Conductance Regulator (CFTR) harboring the ΔF508 mutation (Homo sapiens, UniProt P13569, DEL508-508); test: H441 cell ΔF508-CFTR-HRP cell surface assay (Emax and EC50); assay type: cell-based; settings: for Emax: NCI-H441, NA = Not active
T1 construct: expressed in transfected cells; host or cells: H441 carcinoma line (G418-selected)
In short: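 H441 and 41o- bronchial epithelial cells expressing ΔF508-CFTR with an extracellular-loop-4 HRP tag were treated with a 15-point compound series (24.5–0.001 μM) for two nights, H441 at 27° C, 41o- at 37° C with 0.0005 mg/ml doxycycline. Surface HRP luminescence read; % of maximum VX809 signal and EC50 derived.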

[2] = target: T2, CFTR-mediated transepithelial chloride transport in primary human bronchial epithelial cells from a ΔF508 homozygous CF donor (Homo sapiens, UniProt P13569, DEL508-508); test: TECC24 recording of CFTR-mediated transepithelial chloride transport in CF-HBE cells (AUC fold over DMSO); assay type: cell-based; settings: test agent 10 μM, 48 hours incubation, AUC of forskolin-stimulated IEQ relative to DMSO
T2 construct: Primary human bronchial epithelial cells from a ΔF508 homozygous CF donor; host or cells: primary CF-HBE cells, ΔF508 homozygous donor
T2 sequence (P13569 with tags, fused parts or gaps DEL508-508): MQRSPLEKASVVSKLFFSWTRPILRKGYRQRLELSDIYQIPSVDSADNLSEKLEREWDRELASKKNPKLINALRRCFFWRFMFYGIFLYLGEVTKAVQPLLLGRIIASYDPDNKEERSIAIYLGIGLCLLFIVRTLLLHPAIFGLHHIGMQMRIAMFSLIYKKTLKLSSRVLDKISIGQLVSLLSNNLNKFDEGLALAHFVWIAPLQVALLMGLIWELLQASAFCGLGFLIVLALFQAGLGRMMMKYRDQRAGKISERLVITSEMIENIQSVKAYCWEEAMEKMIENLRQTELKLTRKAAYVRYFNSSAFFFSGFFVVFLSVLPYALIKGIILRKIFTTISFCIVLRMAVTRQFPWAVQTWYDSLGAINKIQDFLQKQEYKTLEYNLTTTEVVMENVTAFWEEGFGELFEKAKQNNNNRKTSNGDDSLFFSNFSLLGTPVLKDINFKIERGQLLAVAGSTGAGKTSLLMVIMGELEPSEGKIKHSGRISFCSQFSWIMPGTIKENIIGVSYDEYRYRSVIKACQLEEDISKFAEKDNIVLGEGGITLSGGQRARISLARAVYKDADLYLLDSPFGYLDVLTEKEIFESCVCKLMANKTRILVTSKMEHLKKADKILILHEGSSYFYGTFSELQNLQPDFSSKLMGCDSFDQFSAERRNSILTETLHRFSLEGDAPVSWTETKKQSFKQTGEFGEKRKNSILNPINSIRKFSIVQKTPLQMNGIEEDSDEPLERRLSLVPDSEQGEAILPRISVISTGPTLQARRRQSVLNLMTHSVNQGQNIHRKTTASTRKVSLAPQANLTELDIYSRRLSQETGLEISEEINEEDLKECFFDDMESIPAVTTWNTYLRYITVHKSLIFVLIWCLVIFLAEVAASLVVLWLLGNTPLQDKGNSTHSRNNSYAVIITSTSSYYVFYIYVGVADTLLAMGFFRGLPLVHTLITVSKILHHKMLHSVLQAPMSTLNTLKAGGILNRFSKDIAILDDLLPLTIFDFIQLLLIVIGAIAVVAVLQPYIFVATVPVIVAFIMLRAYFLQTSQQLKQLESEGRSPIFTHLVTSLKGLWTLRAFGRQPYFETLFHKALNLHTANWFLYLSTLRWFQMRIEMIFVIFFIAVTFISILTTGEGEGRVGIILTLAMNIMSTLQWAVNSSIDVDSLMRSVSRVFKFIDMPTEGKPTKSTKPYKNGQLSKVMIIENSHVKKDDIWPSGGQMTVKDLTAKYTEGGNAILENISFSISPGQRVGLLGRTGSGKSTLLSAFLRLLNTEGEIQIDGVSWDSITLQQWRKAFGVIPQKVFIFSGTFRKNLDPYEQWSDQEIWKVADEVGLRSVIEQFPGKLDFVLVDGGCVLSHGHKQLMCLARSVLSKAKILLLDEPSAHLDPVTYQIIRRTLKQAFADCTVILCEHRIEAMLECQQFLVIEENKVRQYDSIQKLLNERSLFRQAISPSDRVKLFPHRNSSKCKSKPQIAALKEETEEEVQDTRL
In short: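 Equivalent Cl⁻ current was derived from transepithelial voltage and resistance, and its AUC from forskolin (10 μM) to CFTRinh-172 (20 μM) was divided by the DMSO AUC. Benzamil 10 μM blocked ENaC. Cells were ΔF508-homozygous primary bronchial epithelia pretreated 48 h at 36.5 °C in IL-13 medium.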

T1 sequence (P13569 with tags, fused parts or gaps DEL508-508): as above

SMILES	EC50 [1] [nM]	Emax [1] [%]	TECC24 AUC fold over DMSO @10 μM [2]
O=C(N[C@H](C(=O)O)C(c1ccccc1)c1ccccc1)c1ccc2cc(F)ccc2c1OCc1nc2ccccc2s1 [Example 216, (S)-2-(1-(benzo[d]thiazol-2-ylmethoxy)-6-fluoro-2-naphthamido)-3,3-diphenylpropanoic Acid]	900	115	C (“C” refers to AUC @10 uM <4)
CC1([C@H](NC(=O)c2ccc3c(F)cccc3c2OCc2ccc(C(F)(F)F)cc2)C(=O)O)CCCC1 [Example 303, (S)-2-(5-fluoro-1-((4-(trifluoromethyl)benzyl)oxy)-2-naphthamido)-2-(1-methylcyclopentyl)acetic Acid]	700	174	B (“B” refers to AUC @10 uM between 4-6)
CC(C)(S[C@@H]1C[C@@H]2CC[C@H]1C2)[C@H](NC(=O)c1ccc2ccccc2c1OCc1ccc(SC(F)(F)F)cc1)C(=O)O [Example 174, (R)-3-(((1S,2R,4R)-bicyclo[2.2.1]heptan-2-yl)thio)-3-methyl-2-(1-((4-((trifluoromethyl)thio)benzyl)oxy)-2-naphthamido)butanoic Acid]	300	117	C (“C” refers to AUC @10 uM <4)
CC1([C@H](NC(=O)c2ccc3ccc(C(F)(F)F)cc3c2OCc2ccc(C(F)(F)F)cc2)C(=O)O)CCC1 [Example 299, (S)-2-(1-methylcyclobutyl)-2-(7-(trifluoromethyl)-1-((4-(trifluoromethyl)benzyl)oxy)-2-naphthamido)acetic Acid]	200	227	A (“A” refers to AUC @10 uM >6)
O=C(N[C@@H](Cc1ccccc1)C(=O)O)c1ccc2ccccc2c1OCc1ccccc1C(F)(F)F [Example 93, (1-((2-(trifluoromethyl)benzyl)oxy)-2-naphthoyl)-L-phenylalanine]	–	13.1	C (“C” refers to AUC @10 uM <4)
CC(C)(C)[C@H](NC(=O)c1ccc2ccccc2c1OCc1nc2ccccc2s1)C(=O)O [Example 58, (S)-2-(1-(benzo[d]thiazol-2-ylmethoxy)-2-naphthamido)-3,3-dimethylbutanoic Acid]	2800	139	C (“C” refers to AUC @10 uM <4)
COc1ccc2ccc(C(=O)N[C@H](C(=O)O)C(C)(C)C)c(OCc3ccc(OC(F)(F)F)cc3)c2c1 [Example 310, (S)-2-(7-methoxy-1-((4-(trifluoromethoxy)benzyl)oxy)-2-naphthamido)-3,3-dimethylbutanoic Acid]	600	299	A (“A” refers to AUC @10 uM >6)
CCC(C)(C)C(NC(=O)c1ccc2ccc(C)cc2c1OCc1ccc(C(F)(F)F)cc1)C(=O)O (centres unmarked) [Example 275, 3,3-Dimethyl-2-{[7-methyl-1-(4-trifluoromethyl-benzyloxy)-naphthalene-2-carbonyl]-amino}-pentanoic Acid]	200	322	A (“A” refers to AUC @10 uM >6)
CCC(C)(C)[C@@H](NC(=O)c1ccc2ccc(C)cc2c1OCc1ccc(OC(F)(F)F)cc1)C(=O)O [Example 312, (R)-3,3-dimethyl-2-(7-methyl-1-((4-(trifluoromethoxy)benzyl)oxy)-2-naphthamido)pentanoic Acid]	2200	127	B (“B” refers to AUC @10 uM between 4-6)
CCC1([C@H](NC(=O)c2ccc3ccc(F)cc3c2OCc2ccc(C(F)(F)F)cc2)C(=O)O)CCCC1 [Example 314, (S)-2-(1-ethylcyclopentyl)-2-(7-fluoro-1-((4-(trifluoromethyl)benzyl)oxy)-2-naphthamido)acetic Acid]	400	233	A (“A” refers to AUC @10 uM >6)
CC(C)Oc1ccc2c(OCc3ccc(C(F)(F)F)cc3)c(C(=O)N[C@H](C(=O)O)C(C)(C)C)ccc2c1 [Example 260, (2S)-2-[[6-isopropoxy-1-[[4-(trifluoromethyl)phenyl]methoxy]naphthalene-2-carbonyl]amino]-3,3-dimethyl-butanoic Acid]	1500	70.2	C (“C” refers to AUC @10 uM <4)
CC(C)(SC1CCCC1)[C@H](NC(=O)c1ccc2cc(F)ccc2c1OCc1ccc(SC(F)(F)F)cc1)C(=O)O [Example 172]	500	62.7	C (“C” refers to AUC @10 uM <4)
CC(C)(C)[C@H](NC(=O)c1ccc2cc(F)ccc2c1OCc1ccc(SC(F)(F)F)cc1)C(=O)O [Example 75, (S)-2-(6-fluoro-1-((4-((trifluoromethyl)thio)benzyl)oxy)-2-naphthamido)-3,3-dimethylbutanoic Acid]	700	94.2	B (“B” refers to AUC @10 uM between 4-6)
CC(C)(SC1CCCC1)[C@H](NC(=O)c1ccc2ccccc2c1OCc1ccc(SC(F)(F)F)cc1)C(=O)O [Example 169, (R)-3-(cyclopentylthio)-3-methyl-2-(1-((4-((trifluoromethyl)thio)benzyl)oxy)-2-naphthamido)butanoic Acid]	400	138	B (“B” refers to AUC @10 uM between 4-6)
CC(C)(c1ccccc1)[C@H](NC(=O)c1ccc2ccccc2c1OCc1ccc(SC(F)(F)F)cc1)C(=O)O [Example 5, (S)-3-methyl-3-phenyl-2-(1-((4-((trifluoromethyl)thio)benzyl)oxy)-2-naphthamido)butanoic Acid]	800	100	C (“C” refers to AUC @10 uM <4)
CC(C)(C)[C@H](NC(=O)c1ccc2ccc(C(F)F)cc2c1OCc1ccc(C(F)(F)F)cc1)C(=O)O [Example 244, (2S)-2-[[7-(difluoromethyl)-1-[[4-(trifluoromethyl)phenyl]methoxy]naphthalene-2-carbonyl]amino]-3,3-dimethyl-butanoic Acid]	100	365	A (“A” refers to AUC @10 uM >6)
CC(C)(C)[C@H](NC(=O)c1cc(Br)c2ccccc2c1OCc1ccc(C(F)(F)F)cc1)C(=O)O [Example 51, (S)-2-(4-bromo-1-((4-(trifluoromethyl)benzyl)oxy)-2-naphthamido)-3,3-dimethylbutanoic Acid]	400	200	C (“C” refers to AUC @10 uM <4)
CC(C)(C)[C@H](NC(=O)c1ccc2ccc(F)cc2c1OCc1ccc(OC(F)(F)F)cc1)C(=O)O [Example 239, (S)-2-(7-fluoro-1-((4-(trifluoromethoxy)benzyl)oxy)-2-naphthamido)-3,3-dimethyl Butanoic Acid]	300	235	A (“A” refers to AUC @10 uM >6)
CC(C)(C)[C@H](NC(=O)c1ccc2ccc(Cl)cc2c1OCc1ccc(OC(F)(F)F)cc1)C(=O)O [Example 237, (S)-2-(7-chloro-1-((4-(trifluoromethoxy)benzyl)oxy)-2-naphthamido)-3,3-dimethyl Butanoic Acid]	100	275	A (“A” refers to AUC @10 uM >6)
CC(C)(C)C[C@H](NC(=O)c1ccc2ccccc2c1OCC1CCCCC1)C(=O)O [Example 201, (S)-2-(1-(cyclohexylmethoxy)-2-naphthamido)-4,4-dimethylpentanoic Acid]	4100	135	C (“C” refers to AUC @10 uM <4)
CC(C)(C)[C@H](NC(=O)c1ccc2ccccc2c1OCc1ccc(C(F)(F)F)cc1F)C(=O)O [Example 70, (S)-2-(1-((2-fluoro-4-(trifluoromethyl)benzyl)oxy)-2-naphthamido)-3,3-dimethylbutanoic Acid]	800	272	C (“C” refers to AUC @10 uM <4)
Cc1cc(F)c2ccc(C(=O)N[C@H](C(=O)O)C(C)(C)C)c(OCc3ccc(C(F)(F)F)cc3)c2c1 [Example 263, (2S)-2-[[5-fluoro-7-methyl-1-[[4-(trifluoromethyl)phenyl]methoxy]naphthalene-2-carbonyl]amino]-3,3-dimethyl-butanoic Acid]	100	250	A (“A” refers to AUC @10 uM >6)
Cc1ccc2c(OCc3ccc(C(F)(F)F)cc3)c(C(=O)N[C@H](C(=O)O)C(C)(C)C)ccc2c1 [Example 233, (2S)-3,3-dimethyl-2-[[6-methyl-1-[[4-(trifluoromethyl)phenyl]methoxy]naphthalene-2-carbonyl]amino]butanoic Acid]	12200	156	A (“A” refers to AUC @10 uM >6)
CCC(C)(C)[C@H](NC(=O)c1ccc2cc(F)ccc2c1OCc1ccc(SC(F)(F)F)cc1)C(=O)O [Example 84, (S)-2-(6-fluoro-1-((4-((trifluoromethyl)thio)benzyl)oxy)-2-naphthamido)-3,3-dimethylpentanoic Acid]	500	80.5	B (“B” refers to AUC @10 uM between 4-6)
